Values quoted from earlier work, collected in US6488962B1, “Tablet shapes to enhance gastric retention of swellable controlled-release oral dosage forms” (DepoMed, Inc., priority 2000, dated 2002).

Settings: oral doses administered with or following a meal

area under the plasma concentration-time curve, with or following a meal versus without: two to three times greater | peak plasma concentration, with or following a meal versus without: two to three times greater
SMILES: Cc1c(O)cccc1C(=O)N[C@@H](CSc1ccccc1)[C@H](O)CN1C[C@H]2CCCC[C@H]2C[C@H]1C(=O)NC(C)(C)C [nelfinavir]
